Tests used:
AMARE [1] = assay: B. Herbicidal post-emergence action on harmful plants (Tables B); format: in vivo, Amaranthus retroflexus; conditions: application rate 1280 g/ha; Table B8
In short: (§1)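 Activity was scored visually as % damage (100% = dead, 0% = like untreated) about 3 weeks after treatment. Plants at the one-leaf stage, 2-3 weeks old, were sprayed with WP/EC formulations plus 0.5% additive (600 L/ha water, up to 1280 g/ha). Plants were grown in sandy loam in a greenhouse.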

AMARE [2] = assay: A. Herbicidal pre-emergence action on harmful plants (Tables A); format: in vivo, Amaranthus retroflexus
In short: (§2)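 Greenhouse pre-emergence test: compound applied to the soil surface at 1280 g/ha or below, and herbicidal effect rated visually at ca. 3 weeks on a 0–100% scale against untreated plants.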

SETVI [3] = assay: E. Herbicidal post-emergence action, weed and crop plants (Tables E); format: in vivo, Setaria viridis; conditions: application rate 320 g/ha, visual assessment after ca. 3 weeks
Excerpt: Seeds of mono- and dicotyledonous weed plants and crop plants were sown, in plastic or organic planting pots, in sandy loam, covered with soil and grown in a greenhouse under controlled growth conditions. 2 to 3 weeks after sowing, the test plants were sprayed in the single-leaf stage. The compounds according to the invention, formulated in form of wettable powders (WP) or as emulsifiable concentrates (EC), were sprayed onto the green plant parts as aqueous suspension or emulsion, with the addition of 0.5% of an additive, at an application rate of 6001 of water/ha (converted). The test plants were placed in the greenhouse for ca. 3 weeks under optimum growth conditions, and then the effect of the preparations was assessed visually in comparison with untreated controls (herbicidal effect in percent (%): 100% effect = plants have died off, 0% effect = as control plants). Tables E1 to E7 below show the effects of selected compounds of the general formula (I) according to table 1 on various harmful plants and an application rate corresponding to 320 g/ha or below obtained by the experimental procedure mentioned above. Table E1: post-emergence activity at 320g/ha against ALOMY in %

ABUTH = assay: B. Herbicidal post-emergence action on harmful plants (Tables B); format: in vivo, Abutilon theophrasti
In short: as §1

AMARE [4] = assay: C. Herbicidal pre-emergence action, weed and crop plants (Tables C); format: in vivo, Amaranthus retroflexus; conditions: application rate 320 g/ha; Table C3
Excerpt: Seeds of mono- and dicotyledonous weed plants and crop plants were sown, in plastic or organic planting pots, in sandy loam and covered with soil. The compounds according to the invention, formulated in the form of wettable powders (WP) or as emulsifiable concentrates (EC), were applied to the surface of the covering soil as aqueous suspension or emulsion, with the addition of 0.5% of an additive, at an application rate of 6001 of water/ha (converted). Following treatment, the pots were placed in a greenhouse and kept under optimum growth conditions for the test plants. The visual grading of the damage to the test plants was carried out after ca. 3 weeks in comparison to untreated controls (herbicidal effect in percent (%): 100% effect = plants have died off, 0% effect = as control plants). Tables C1 to C12 below show the effects of selected compounds of the general formula (I) according to table 1 on various harmful plants and an application rate corresponding to 320 g/ha or below obtained by the experimental procedure mentioned above. Table C1: pre-emergence activity at 320g/ha against KCHSC in %

VERPE [5] = assay: B. Herbicidal post-emergence action on harmful plants (Tables B); format: in vivo, Veronica persica
In short: as §1

ORYZA = assay: D. Pre-emergence effects on crop plants (Tables D); format: in vivo, Oryza sativa; conditions: crop plant
Excerpt: Seeds of mono- and dicotyledonous weed plants and crop plants were sown, in plastic or organic planting pots, in sandy loam and covered with soil. The compounds according to the invention, formulated in the form of wettable powders (WP) or as emulsifiable concentrates (EC), were applied to the surface of the covering soil as aqueous suspension or emulsion, with the addition of 0.5% of an additive, at an application rate of 6001 of water/ha (converted).
Following treatment, the pots were placed in a greenhouse and kept under optimum growth conditions for the test plants. The visual grading of the damage to the test plants was carried out after ca. 3 weeks in comparison to untreated controls (herbicidal effect in percent (%): 100% effect = plants have died off, 0% effect = as control plants).
Tables D1 to D5 below show the effects of various compounds of the general formula (I) according to Table 1 on various crop plants and an application rate corresponding to 320 g/ha or below obtained by the experimental procedure mentioned above in Biological Examples, Section C. Table D1a: pre-emergence activity at 320g/ha against ZEAMX in %

STEME = assay: B. Herbicidal post-emergence action on harmful plants (Tables B); format: in vivo, Stellaria media; conditions: application rate 1280 g/ha; Table B6
In short: as §1

VERPE [6] = assay: A. Herbicidal pre-emergence action on harmful plants (Tables A); format: in vivo, Veronica persica; conditions: application rate 1280 g/ha; Table A11
In short: as §2

SETVI [7] = assay: B. Herbicidal post-emergence action on harmful plants (Tables B); format: in vivo, Setaria viridis; conditions: application rate 1280 g/ha; Table B5
In short: as §1

[8] = application rate 320 g/ha, Table A8b
[9] = application rate 1280 g/ha, visual grading after ca. 3 weeks vs untreated controls, 100% = plants have died off, 0% = as control plants
[10] = application rate 320 g/ha, treated at the one-leaf stage, rated visually after about 3 weeks vs untreated controls, 100% = the plants have died, 0% = like control plants
[11] = application rate 1280 g/ha, Table B1a
[12] = application rate 1280 g/ha, Table B11a
[13] = application rate 80 g/ha, Table D3b
[14] = application rate 320 g/ha, Table D3a

Structure (SMILES): COCc1nn(C)cc1C(=O)N1CCCC1Cc1ccccc1F (racemic) [Example I-002]
- post-emergence activity against AMARE (AMARE [1]): 90%

Structure (SMILES): COCc1nn(C)cc1C(=O)N1CCCC1Cc1ccccc1F (single isomer, unassigned) [Example I-003]
- pre-emergence activity against AMARE (AMARE [2]; [8]): 90%
- pre-emergence activity against AMARE (AMARE [2]; [9]): 90%
- post-emergence activity against SETVI in % (SETVI [3]): 80%
- post-emergence activity against ABUTH (ABUTH; [10]): 90%
- post-emergence activity against ABUTH (ABUTH; [11]): 90%
- pre-emergence activity against AMARE (AMARE [4]): 90%
- post-emergence activity against VERPE (VERPE [5]; application rate 80 g/ha, Table B11c): 90%
- post-emergence activity against VERPE (VERPE [5]; application rate 320 g/ha, Table B11b): 90%
- post-emergence activity against VERPE (VERPE [5]; [12]): 90%

Structure (SMILES): Cn1cc(C(=O)N2CCCC2Cc2ccc(F)cc2F)c(COc2ccccc2)n1 (racemic) [Example I-008]
- pre-emergence activity against ORYZA (ORYZA; [13]): 0%
- pre-emergence activity against ORYZA (ORYZA; [14]): 0%

Structure (SMILES): CNC(=O)n1cc(C(=O)N2CCCC2Cc2ccccc2F)c(COC)n1 (racemic) [Example I-051]
- post-emergence activity against STEME (STEME): 90%

Structure (SMILES): COCc1c(C(=O)N2CCCC2Cc2ccccc2F)cnn1C (single isomer, unassigned) [Example I-157]
- pre-emergence activity against AMARE (AMARE [2]; [8]): 90%
- pre-emergence activity against AMARE (AMARE [2]; [9]): 90%
- post-emergence activity against STEME (STEME): 100%
- pre-emergence activity against VERPE (VERPE [6]): 90%

Structure (SMILES): COCc1c(C(=O)N2CCCC2Cc2ccccc2Cl)cnn1C (racemic) [Example I-170]
- post-emergence activity against SETVI (SETVI [7]): 90%
- post-emergence activity against VERPE (VERPE [5]; [12]): 90%

Structure (SMILES): C=C(c1ccccc1F)C1CCCN1C(=O)c1cn(C)nc1COC (racemic) [Example I-023]
- pre-emergence activity against AMARE (AMARE [2]; [9]): 90%

Structure (SMILES): COCc1nn(C)cc1C(=O)N1CCCC1C(O)c1ccccc1F (single isomer, unassigned) [Example I-053]
- post-emergence activity against SETVI (SETVI [7]): 90%
- post-emergence activity against SETVI in % (SETVI [3]): 80%
- pre-emergence activity against AMARE (AMARE [4]): 90%

Structure (SMILES): Cn1cc(C(=O)N2CCCC2Cc2ccccc2F)c(COc2ccccc2)n1 (racemic) [Example I-006]
- pre-emergence activity against ORYZA (ORYZA; [13]): 0%
- pre-emergence activity against ORYZA (ORYZA; [14]): 0%
- post-emergence activity against ABUTH (ABUTH; [10]): 90%
- post-emergence activity against ABUTH (ABUTH; [11]): 90%
- pre-emergence activity against VERPE (VERPE [6]): 100%
- post-emergence activity against AMARE (AMARE [1]): 90%

Source: EP4417602A1, “SUBSTITUTED PYRAZOLE CARBOXAMIDES, SALTS THEREOF AND THEIR USE AS HERBICIDALLY ACTIVE SUBSTANCES” (Bayer AG, priority 2023, dated 2024)
